Data as given in patent US20240165137A1, “METHODS FOR IMPROVING MUSCLE STRENGTH AND MOBILITY” (Intrinsic Medicine, Inc., priority 2020, published 2024).

System: CEBPB expression in LPS-stimulated THP-1 cells
Test: Nascent RNA sequencing of LPS-stimulated THP-1 cells (CEBPB expression)
Type: cell-based
Conditions: 10 ng/mL LPS and 250 μM 2′FL
Protocol: THP-1 Cells were treated with 10 ng/mL LPS or 10 ng/mL LPS and 250 μM 2′FL and extracted for nascent RNAs at 30 min and 24 hours. The nascent RNAs were sequenced and analyzed as described in Azofeifa et al. (2018), Genome Res. 28: 334-344; the contents of which are expressly incorporated by reference herein.

CC1O[C@@H](OC2[C@H](O[C@H]3C(O)C(O)C(O)O[C@H]3CO)OC(CO)[C@H](O)[C@@H]2O)C(O)[C@@H](O)[C@@H]1O (stereo partly drawn) [2′FL, 2′-fucosyllactose]
CEBPB maximum enrichment score (nascent RNAs, 2′FL+LPS versus LPS alone) (30 min): 40 | CEBPB maximum enrichment score (nascent RNAs, 2′FL+LPS versus LPS alone) (24 hours): 20 | CEBPB expression (nascent RNAs, 2′FL+LPS versus LPS alone) (both the 30 min and 24 hour time points): enhanced and upregulated
